Experimental data as given in ChEMBL document CHEMBL1122614, “Antiinflammatory activity of N-(2-benzoylphenyl)alanine derivatives” (J Med Chem, 1984).
Several values for one entry are separate records, joined by “and”; a condition that tells them apart may be missing. Equal values may be shown once. Each block holds one molecule with its values, some of them ahead of it. Activity calls are given as the source filed them. The calls are words filed in the database; no cut-off is given here.

Key:
Rattus norvegicus [1] = experiment: Percentage change in volume of pleural fluid in the 5-h Evans Blue-Carrageenan pleural assay for the compound at dose 100 mg/kg; format: functional
Rattus norvegicus [2] = experiment: Percentage change in volume of pleural fluid in the 5-h Evans Blue-Carrageenan pleural assay for Indomethacin 4.0 mg/kg; format: functional
Rattus norvegicus [3] = experiment: Percentage change in volume of pleural fluid in the 5-h Evans Blue-Carrageenan pleural assay for the compound at dose 4 mg/kg; format: functional
Rattus norvegicus [4] = experiment: Oral antiinflammatory activity, measured in rats at the dose of 316 mg/kg; format: functional
Cyclooxygenase = biological target: T1, Cyclooxygenase (Bos taurus, UniProt O62664+O62698)
T1 sequence (O62664 whole entry): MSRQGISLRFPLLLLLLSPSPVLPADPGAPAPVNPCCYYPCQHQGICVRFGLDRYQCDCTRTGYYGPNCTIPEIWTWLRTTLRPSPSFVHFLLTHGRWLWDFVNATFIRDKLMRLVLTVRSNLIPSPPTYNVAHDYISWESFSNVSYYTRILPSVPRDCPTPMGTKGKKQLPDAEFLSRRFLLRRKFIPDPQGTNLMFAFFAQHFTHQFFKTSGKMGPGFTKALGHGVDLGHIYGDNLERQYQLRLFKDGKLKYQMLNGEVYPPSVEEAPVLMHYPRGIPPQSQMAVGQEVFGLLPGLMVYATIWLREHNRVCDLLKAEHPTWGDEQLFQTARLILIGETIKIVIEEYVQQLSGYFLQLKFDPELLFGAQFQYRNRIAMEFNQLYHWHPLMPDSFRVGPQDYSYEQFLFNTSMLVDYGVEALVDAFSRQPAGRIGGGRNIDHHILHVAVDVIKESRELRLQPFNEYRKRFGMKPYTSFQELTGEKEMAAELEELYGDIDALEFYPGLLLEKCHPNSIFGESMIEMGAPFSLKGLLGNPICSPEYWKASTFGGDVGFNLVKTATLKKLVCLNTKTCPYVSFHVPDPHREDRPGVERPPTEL
T1 sequence (O62698 whole entry): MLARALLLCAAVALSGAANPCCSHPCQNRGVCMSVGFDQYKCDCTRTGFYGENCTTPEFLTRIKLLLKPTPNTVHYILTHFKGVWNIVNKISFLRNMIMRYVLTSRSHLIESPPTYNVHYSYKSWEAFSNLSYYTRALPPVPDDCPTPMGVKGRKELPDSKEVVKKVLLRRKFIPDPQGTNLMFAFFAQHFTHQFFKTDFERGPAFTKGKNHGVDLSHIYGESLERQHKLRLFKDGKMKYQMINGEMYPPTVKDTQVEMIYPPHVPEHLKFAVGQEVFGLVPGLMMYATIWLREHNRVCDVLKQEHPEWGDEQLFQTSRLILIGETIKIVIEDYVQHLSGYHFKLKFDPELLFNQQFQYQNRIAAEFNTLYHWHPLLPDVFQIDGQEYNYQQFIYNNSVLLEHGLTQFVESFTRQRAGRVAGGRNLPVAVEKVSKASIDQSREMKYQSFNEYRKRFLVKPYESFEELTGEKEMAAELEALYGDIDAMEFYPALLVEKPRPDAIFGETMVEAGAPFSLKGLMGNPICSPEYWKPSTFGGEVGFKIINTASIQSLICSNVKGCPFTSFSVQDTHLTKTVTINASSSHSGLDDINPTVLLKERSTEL
Description: Inhibition of PG synthetase activity obtained from bovine seminal vesicles

Rattus norvegicus [5] = experiment: Percentage change in volume of pleural fluid in the 5-h Evans Blue-Carrageenan pleural assay for the compound at dose 20 mg/kg; format: functional
Rattus norvegicus [6] = experiment: Percentage change in volume of pleural fluid in the 5h- Evans Blue-Carrageenan pleural assay for the compound at dose 80 mg/kg; format: functional
Rattus norvegicus [7] = experiment: Relative Oral Anti inflammatory activity in the 5-h Evans Blue-Carrageenan pleural assay using indomethacin as reference compound; IA = inactive at 316 mg/kg; format: functional, organism-based; design: dose 316 mg/kg
Rattus norvegicus [8] = experiment: Percentage change in volume of pleural fluid in the 5-h Evans Blue-Carrageenan pleural assay for the compound at (100 mg/kg); format: functional
Rattus norvegicus [9] = experiment: Percentage change in volume of pleural fluid in the 5-h Evans Blue-Carrageenan pleural assay for Indomethacin at dose 4.0 mg/kg; format: functional
Rattus norvegicus [10] = experiment: Percentage change in volume of pleural fluid in the 5-h Evans Blue-Carrageenan pleural assay for the compound at dose 20 m/kg; format: functional
Rattus norvegicus [11] = experiment: Percentage change in volume of pleural fluid in the 5-h Evans Blue-Carrageenan pleural assay for the compound at dose 80 m/kg; format: functional
Rattus norvegicus [12] = experiment: Percentage change in volume of pleural fluid in the 5-h Evans Blue-Carrageenan pleural assay for the compound at dose 100 m/kg; format: functional
Rattus norvegicus [13] = species: Rattus norvegicus; experiment: Percentage change in volume of pleural fluid in the 5-h Evans Blue-Carrageenan pleural assay for the compound; format: functional

Structure (SMILES): COc1ccc(C(=O)c2ccccc2NC(C)C(=O)O)cc1 (configuration not stated)
Change (Rattus norvegicus [1]): -22%
Change (Rattus norvegicus [2]): -35%
Change (Rattus norvegicus [3]): -9%
Efficacy ratio (Rattus norvegicus [4]; 316 mg/kg): 1.8 and 1.94

Structure (SMILES): COc1ccc(NC(C)C(=O)O)c(C(=O)c2ccccc2)c1 (configuration not stated)
Efficacy ratio (Rattus norvegicus [4]; 316 mg/kg): 1.06 and 1.52

Structure (SMILES): CC(C)Nc1ccccc1C(=O)c1ccccc1.Cl
Efficacy ratio (Rattus norvegicus [4]; 316 mg/kg): 1.13 and 1.46

Structure (SMILES): CC(Oc1ccccc1C(=O)c1ccccc1)C(=O)O (configuration not stated)
Efficacy ratio (Rattus norvegicus [4]; 316 mg/kg): 0.98 and 1.65

Structure (SMILES): CC(Nc1ccccc1C(=O)c1ccc(Br)cc1)C(=O)O (configuration not stated)
Change (Rattus norvegicus [1]): -29%
Change (Rattus norvegicus [2]): -25%
Change (Rattus norvegicus [3]): -3%
Efficacy ratio (Rattus norvegicus [4]; 316 mg/kg): 1.43 and 1.46

IC50 (Cyclooxygenase): > 1000 µM
Structure (SMILES): Cc1c(NCC(=O)O)cccc1C(=O)c1ccc(Cl)cc1

IC50 (Cyclooxygenase): 60 µM
Structure (SMILES): CC(Nc1ccccc1C(=O)c1ccc(Cl)cc1)C(=O)O (configuration not stated)
Change (Rattus norvegicus [2]): -30%
Change (Rattus norvegicus [5]): -5%
Efficacy ratio (Rattus norvegicus [4]; 316 mg/kg): 1.62 and 1.42
Change (Rattus norvegicus [6]): -33%

IC50 (Cyclooxygenase): 300 µM
Structure (SMILES): Cc1ccc2c(-c3ccccc3)nc(=O)n(C(C)C(=O)O)c2c1 (configuration not stated)
Relative potency (Rattus norvegicus [7]): inactive

Structure (SMILES): Cc1ccc(C(=O)c2ccccc2NC(C)C(=O)O)cc1 (configuration not stated)
Change (Rattus norvegicus [1]): -21%
Change (Rattus norvegicus [2]): -35%
Change (Rattus norvegicus [3]): -8%
Efficacy ratio (Rattus norvegicus [4]; 316 mg/kg): 1.39 and 1.52

Structure (SMILES): O=C(O)CCNc1ccccc1C(=O)c1ccccc1
Change (Rattus norvegicus [2]): -41%
Change (Rattus norvegicus [8]): -9%
Efficacy ratio (Rattus norvegicus [4]; 316 mg/kg): 1.35 and 1.46

Structure (SMILES): Cc1ccc(C(=O)c2ccccc2)c(NC(C)C(=O)O)c1 (configuration not stated)
Change (Rattus norvegicus [2]): -28%
Change (Rattus norvegicus [5]): -19%
Efficacy ratio (Rattus norvegicus [4]; 316 mg/kg): 1.88 and 1.46

Structure (SMILES): Cc1ccc(NC(C)C(=O)O)c(C(=O)c2ccccc2)c1 (configuration not stated)
Change (Rattus norvegicus [9]): -31%
Change (Rattus norvegicus [1]): -15%
Efficacy ratio (Rattus norvegicus [4]): 1.52

Structure (SMILES): Cc1ccc2c(-c3ccccc3)nc(=O)n(C(C)C)c2c1 [PROQUAZONE]
IC50 (Cyclooxygenase): 0.07 µM

Structure (SMILES): CC(Nc1ccc(Cl)cc1C(=O)c1ccc(Br)cc1)C(=O)O (configuration not stated)
Efficacy ratio (Rattus norvegicus [4]; 316 mg/kg): 1.1 and 1.57

Structure (SMILES): CC(Nc1ccccc1C(=O)c1ccccc1)C(=O)O (configuration not stated)
Change (Rattus norvegicus [9]; 4 mg/kg): -20% and -30%
Change (Rattus norvegicus [10]): 4%
Change (Rattus norvegicus [11]): -32%
Efficacy ratio (Rattus norvegicus [4]; 316 mg/kg): 1.6 and 1.66
Change (Rattus norvegicus [12]): -28%

Structure (SMILES): CC(Nc1cccc(C(=O)c2ccccc2)c1)C(=O)O.Cl (configuration not stated)
Change (Rattus norvegicus [2]): -32%
Change (Rattus norvegicus [8]): -15%
Efficacy ratio (Rattus norvegicus [4]; 316 mg/kg): 1.38 and 1.4

Structure (SMILES): CC(Nc1ccccc1C(=O)c1ccc(Cl)cc1Cl)C(=O)O (configuration not stated)
Change (Rattus norvegicus [1]): -34%
Change (Rattus norvegicus [2]): -32%
Change (Rattus norvegicus [3]): -3%
Efficacy ratio (Rattus norvegicus [4]; 316 mg/kg): 1.44 and 1.52

Structure (SMILES): CC(CNc1ccccc1C(=O)c1ccccc1)C(=O)O.Cl (configuration not stated)
Efficacy ratio (Rattus norvegicus [4]; 316 mg/kg): 0.97 and 1.4

Structure (SMILES): O=C(O)CNc1ccccc1C(=O)c1ccccc1
Efficacy ratio (Rattus norvegicus [4]; 316 mg/kg): 0.98 and 1.47

Structure (SMILES): CC(Nc1ccc(Cl)cc1C(=O)c1ccccc1)C(=O)O (configuration not stated)
Change (Rattus norvegicus [1]; 100 mg/kg): -28% and -18%
Change (Rattus norvegicus [3]): 6%
Efficacy ratio (Rattus norvegicus [4]; 316 mg/kg): 1.96 and 1.57

Structure (SMILES): CN(CC(=O)O)c1ccccc1C(=O)c1ccccc1.Cl
Change (Rattus norvegicus [2]): -38%
Change (Rattus norvegicus [13]): -13%

Structure (SMILES): CC(Nc1ccc(C(=O)c2ccccc2)cc1)C(=O)O (configuration not stated)
Change (Rattus norvegicus [2]): -31%
Change (Rattus norvegicus [8]): -4%
Efficacy ratio (Rattus norvegicus [4]; 316 mg/kg): 1.37 and 1.91

Structure (SMILES): CC(Nc1ccccc1Oc1ccccc1)C(=O)O (configuration not stated)
Efficacy ratio (Rattus norvegicus [4]; 316 mg/kg): 1.18 and 1.52
